# Results taken from paper PMC10740432, “The GDP-Mannose Dehydrogenase of Pseudomonas aeruginosa: An Old and New Target to Fight against Antibiotics Resistance of Mucoid Strains” (Antibiotics, 2023).
# How the values were obtained:
# [1] = molecular target: T1, GDP-mannose dehydrogenase (GMD) (Pseudomonas aeruginosa, UniProt P11759); experiment: inhibition of NADH formation at […] nm; assay type: biochemical; details: read-out: Percentage of GMD Inhibition at the Final Concentration of
# T1 construct: gene algD; native full-length protein purified from mucoid P. aeruginosa; 48 kDa polypeptide; 59 kDa apparent on gel filtration, monomer/active dimer; no tag
# T1 sequence (P11759 whole entry): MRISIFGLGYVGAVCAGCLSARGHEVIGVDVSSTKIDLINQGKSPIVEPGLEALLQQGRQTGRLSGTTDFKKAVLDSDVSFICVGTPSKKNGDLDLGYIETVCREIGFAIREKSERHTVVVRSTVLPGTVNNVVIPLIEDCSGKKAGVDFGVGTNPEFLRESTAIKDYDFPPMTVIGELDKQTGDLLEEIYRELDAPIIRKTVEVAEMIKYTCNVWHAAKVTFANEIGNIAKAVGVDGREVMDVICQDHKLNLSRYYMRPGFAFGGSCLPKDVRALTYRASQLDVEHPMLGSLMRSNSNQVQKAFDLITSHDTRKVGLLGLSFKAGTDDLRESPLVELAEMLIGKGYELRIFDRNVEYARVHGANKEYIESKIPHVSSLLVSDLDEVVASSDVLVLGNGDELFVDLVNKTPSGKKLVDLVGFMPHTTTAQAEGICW
# [2] = molecular target: T1, GDP-mannose dehydrogenase (GMD); experiment: NADH formation at […] nm, Dixon plot; assay type: biochemical
# [3] = system: Nc1nc2c(ncn2[C@@H]2O[C@H](COP(=O)(O)OP(=O)(O)O[C@H]3O[C@H](CO)[C@@H](O)[C@H](O)[C@@H]3O)[C@@H](O)[C@H]2O)c(=O)[nH]1; experiment: purified protein; details: strong-affinity site of two (negative cooperativity), strains NK 125502 and A22 alg^+, 1 mM NAD+, 10 mM MgSO4, 0.2 M glycyl-glycine pH 8.5, 37 °C
# [4] = system: NC(=O)c1ccc[n+]([C@@H]2O[C@H](COP(=O)(O)OP(=O)(O)OC[C@H]3O[C@@H](n4cnc5c(N)ncnc54)[C@H](O)[C@@H]3O)[C@@H](O)[C@H]2O)c1; experiment: purified protein; details: co-substrate GDP-mannose, 10 mM MgSO4, 0.2 M glycyl-glycine pH 8.5, 37 °C, strain not stated, varied: cofactor
compound,measurement,setting,value
"NC[C@H]1O[C@@H](n2cnc3c(=O)[nH]c(N)nc32)[C@H](O)[C@@H]1O [5′AG, 5′-amino-5′-deoxy-guanosine]",inhibition at 500 µM,[1],64 ± 3%
"Nc1nc2c(ncn2[C@@H]2O[C@H](CNCCCO)[C@@H](O)[C@H]2O)c(=O)[nH]1 [5′APG, 5′-(3-hydroxypropyl)-amino-5′-guanosine]",inhibition at 500 µM,[1],72 ± 2%
"C#CC(OC(C)=O)[C@H]1O[C@H](OC(=O)NS(=O)(=O)OC[C@H]2O[C@@H](n3cnc4c(=O)[nH]c(NC(C)=O)nc43)[C@@H]3OC(C)(C)O[C@@H]32)[C@@H](OC(C)=O)[C@@H](OC(C)=O)[C@@H]1OC(C)=O (stereo partly drawn) [AM5′ASG, alcynyl-6-tetra-O-acetyl-mannose-carbonyl-amino-sulfonyl-guanosine]",inhibition at 500 µM,[1],90 ± 3%
Nc1nc2c(ncn2[C@@H]2O[C@H](CO)[C@@H](O)[C@H]2O)c(=O)[nH]1 [guanosine],Ki,[2],~40 µM
GDP-mannose dehydrogenase (GMD) (Pseudomonas aeruginosa PAO1),Km,[3],13 µM
same,Km,[4],360 µM
